Results on 4 molecules are retold here after patent US20100184809A1, “Heterocyclic FXR Binding Compounds” (PHENEX PHARMACEUTICALS AG, priority 2006, published 2010).

pIC50: −log10 of the molar value.

A short description of data set [1]: Rat hepatocyte stability assay. Format: in vitro ADME. Conditions: hepatocytes, 37° C., 60 minute, read-out: Rat hepatocyte clearance. How it is done:
Compound stability towards rat hepatocytes was determined as follows: The hepatocytes are incubated with the test compound at 37° C. Samples are removed at the appropriate time points into methanol to terminate the reaction. Following centrifugation, the supernatant is analysed by LC-MS/MS. The disappearance of test compound is monitored over a 60 minute time period. The In peak area ratio (compound peak area/internal standard peak area) is plotted against time and the gradient of the line determined. Finally, half life t1/2 and Intrinsic clearance CLint is computed by the following equations: elimination rate konstant (k)=−gradient; t1/2 (min)=0.693/k; V (μl/10^6 cells)=volume of incubation (μl)/number of cells (*10^6); CLint (μl/min/10^6cells protein)=V*0.693/t1/2.

Data set [2] can be described thus: Aqueous solubility assay, Protocol A, nephelometry method. Conditions: PBS with 5% DMSO, aqueous with cosolvent or surfactant or cyclodextrin, kinetic from dmso stock, PBS pH 7.4, 5% DMSO, 23° C., 24 hours, read-out: Aqueous solubility pH 7.4. It is filed as physicochemical. In a few lines: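 PBS pH 7.4 with 5% DMSO at 23° C; compounds diluted from 10 mM DMSO stock to final 100, 70, 50, 35, 25, 17, 12 and <10 μg/ml. Equilibrated 24 h at room temperature, then solubility read by nephelometric light scattering; acetylsalicylic acid served as validation compound.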

Data set [3] deals with T1, human FXRalpha ligand binding domain (LBD) (Homo sapiens, UniProt Q96RI1).
T1 construct: made in house; host or cells: E. coli BL21(DE3), vector pDEST15
T1 sequence (Q96RI1 187-472 isoform Q96RI1-2): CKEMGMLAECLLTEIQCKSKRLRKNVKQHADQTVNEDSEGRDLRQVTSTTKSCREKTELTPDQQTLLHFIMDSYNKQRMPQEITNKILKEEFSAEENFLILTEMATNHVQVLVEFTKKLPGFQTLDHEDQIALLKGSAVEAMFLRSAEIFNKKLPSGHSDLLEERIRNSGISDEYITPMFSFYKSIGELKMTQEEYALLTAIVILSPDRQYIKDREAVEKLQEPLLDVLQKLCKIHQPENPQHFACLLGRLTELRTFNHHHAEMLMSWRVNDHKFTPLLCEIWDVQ
Kind of data set: FRET activity assay (ligand mediated cofactor peptide interaction, LANCE). Format: biochemical. The note with it: GST-FXR-LBD / biotinylated SRC-1 peptide (676-700). In a few lines:
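GST-tagged human FXRα LBD (aa 187-472) from E. coli, with biotinylated SRC-1 peptide 676-700 (200-600 nM), Eu anti-GST and streptavidin-APC in Tris pH 7.5 buffer, 1% DMSO. One hour at room temperature in the dark, then time-resolved FRET read as the 665/615 nm ratio.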

Consider `CC(C)c1onc(-c2c(Cl)cccc2Cl)c1COc1ccc(/C=C/c2cccc(C(=O)O)c2)c(Cl)c1` [Compound B, reference compound], for which the hepatocyte CLint in data set [1] is 45 µL/min/1e6 cells. The solubility at 24 h in data set [2] was < 2 µM.
As to `Cc1nc(OCc2c(-c3c(Cl)cccc3Cl)noc2C(C)C)ccc1N(C)S(=O)(=O)c1ccc(C(=O)O)cc1` [Example 4, 4-(N-(6-((3-(2,6-dichlorophenyl)-5-isopropylisoxazol-4-yl)methoxy)-2-methylpyridin-3-yl)—N-methylsulfamoyl)benzoic acid], in data set [1], the hepatocyte CLint is 7.1 µL/min/1e6 cells. For the same molecule, the pIC50 in data set [3] was ≥ 6.00. The solubility at 24 h in data set [2] was > 100 µM.
On to `CC(C)c1onc(-c2c(Cl)cccc2Cl)c1COc1ccc(N(C)C(=O)c2ccc(C(=O)O)cc2)c(C(F)(F)F)n1` [Example 7, N-{6-[3-(2,6-dichloro-phenyl)-5-isopropyl-isoxazol-4-ylmethoxy]-2-trifluoromethyl-pyridin-3-yl}-N-methyl-terephthalamic acid], for which the hepatocyte CLint in data set [1] was determined as 0.7 µL/min/1e6 cells. Also, the pIC50 in data set [3] was ≥ 6.00. The solubility at 24 h in data set [2] is > 100 µM.
In the case of `CC(C)c1onc(-c2c(Cl)cccc2Cl)c1COc1ccc(N(C)Cc2ccc(C(=O)O)cc2)c(C(F)(F)F)n1` [Example 28, 4(((6-((3-(2,6-Dichlorophenyl)-5-isopropylisoxazol-4-yl)methoxy)-2-(trifluoromethyl)pyridin-3-yl)(methyl)amino)methyl)benzoic acid], the pIC50 in data set [3] was ≥ 6.00.
